Source: patent US7141251B2, “Pharmacologically active strong acid solutions” (Cytorex Biosciences, inc., priority 2001, dated 2006)

Legend:
[1] = Example 27: patient with hypertension; conditions: 180/110 without medication
[2] = in water; cited from earlier work

SMILES	blood pressure [1]	Grade of Ionization (α) [2]
CC(C)NCC(O)COc1ccc(CC(N)=O)cc1 (stereo not drawn) [Atenolol]	150/90	
O=C(O)C(=O)O [Formulation H2C2O4, oxalic acid]		α = 1
O=C(O)CC(O)(CC(=O)O)C(=O)O [Formulation H8C6O7, citric acid]		α < 1
